# In US20160106711A1, “3-3-Di-Substituted-Oxindoles as Inhibitors of Translation Initiation” (President and Fellows of Harvard College, priority 2012, published 2016):
# How the values were obtained:
# CRL-2351 = experiment: Cell growth assay (sulforhodamine B), CRL-2351 cells; format: cell-based, human; conditions: 5 days, SRB
# In short: (§1)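 Cells were exposed for 5 days to 0.54-6 µM compound, then TCA-fixed and stained with sulforhodamine B, read at 490 nm. Growth was expressed as %T/C with time-zero correction. IC50 is the concentration giving 50% growth inhibition.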
# CHOP mRNA [1] = experiment: Real time PCR of CHOP mRNA expression, KLN cells; format: cell-based, mouse; conditions: for CHOP PCR (μM) KLN / fold induction at 20 µM: at 20 uM
# Procedure: (§2) In order to validate the compounds described herein as modifiers of the abundance of the eIF2•GTP•Met-tRNAi ternary complex, the effects of the compounds on endogenous cellular markers of the ternary complex were determined. For example, reducing amount of the ternary complex increases translation of ATF-4, which results in elevated expression of CHOP mRNA and protein. Therefore, expression of endogenous CHOP mRNA and CHOP protein in KLN-tTA/pBISA-DL^(ATF-4) cells were utilized as secondary assays to validate the compounds as modifiers of the eIF2•GTP•Met-tRNAi ternary complex.
# (§3) Total RNA was extracted with TaqMan Gene Expression Cells-to-Ct™ Kit (Applied Biosystems, Branchburg, N.J.) and DNAse I treated according to manufacturer's recommendations. 1-Step Real-time PCR was performed on a Bio-Rad iCycler IQ5 system by using B-R 1-Step SYBR Green qRT-PCR Kit (Quanta BioSciences, Gaithersburg, Md.) according to manufacturer's specifications. The thermal cycler conditions were as follows: 10 minutes at 50° C., hold for 5 minutes at 95° C., followed by 2-step PCR for 45 cycles of 95° C. for 15 seconds followed by 60° C. for 30 seconds. All PCRs were performed in triplicate in at least two independent PCR runs. Mean values of these repeated measurements were used for calculation. To calibrate the results, all the transcript quantities were normalized to 18S rRNA (18S ribosomal RNA-like mRNA in mouse). The following primers were used in real-time PCR reactions.
# The effects of these compounds on the ternary complex assay and the expression of CHOP mRNA was assayed in adherent mouse (KLN) and human solid tumors cells (CRL-2351 and CRL-2813).
# CRL-2813 = experiment: Cell growth assay (sulforhodamine B), CRL-2813 cells; format: cell-based, human; conditions: 5 days, SRB
# In short: as §1
# KLN = experiment: Cell growth assay (sulforhodamine B), KLN cells; format: cell-based, mouse; conditions: 5 days, SRB
# [2] = test system: eIF2•GTP•Met-tRNAi ternary complex; experiment: Ternary complex assay (ATF-4 assay), dual luciferase firefly/renilla ratio; format: cell-based, mouse; conditions: for maximal fold induction at 40 µM: read-out: ATF-4 Xmax @ 40 μM
# In short: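 Stable KLN cancer cells expressing tTA carry a bidirectional reporter in which firefly luciferase sits behind the ATF-4 5′UTR and renilla luciferase behind a plasmid-derived 5′UTR only. Lysates were read by Dual-Glo luciferase assay, and the output is the firefly/renilla signal ratio.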
# CHOP mRNA [3] = experiment: Real time PCR of CHOP mRNA expression, CRL-2351 cells; format: cell-based, human
# Procedure: as §2
# as §3, with “Mean values of these repeated measurements were used for calculation.” left out, “The following primers were used in real-time PCR reactions.” left out
# [4] = Mus musculus, read-out: ATF-4 Xmax
# [5] = Mus musculus, 80 uM, read-out: ATF-4 Xmax
Compound,"IC50 (CRL-2351; Homo sapiens, 120 h) [µM]","IC50 (CRL-2813; Homo sapiens, CRL2813, 120 h) [µM]","IC50 (KLN; Mus musculus, 120 h) [µM]","maximal fold induction at 40 µM ([2]; Mus musculus, at 40 uM)","maximal fold induction at 80 µM [2, 5]",other results
CCN(CCO)CCOc1ccc(C(C)(C)C)cc1C1(c2cc(C(C)(C)C)ccc2OCCN2CCOCC2)C(=O)N(CCN(C)C)c2ccccc21 (stereo not shown) [HY306],–,–,–,–,–,IC50 (CRL-2351): 2.3 ± 0.6 µM; CHOP PCR (μM) KLN (CHOP mRNA [1]): 8.11 at; IC50 (CRL-2813): 2.7 ± 0.8 µM; IC50 (KLN): 2.3 ± 1.6 µM; ATF-4 Xmax @ 40 μM ([2]; at 40 uM): 19.2 ± 11.2 at 40 uM
COCCOc1ccc(C(C)(C)C)cc1C1(c2cc(C(C)(C)C)ccc2O)C(=O)Nc2ccccc21 (stereo not shown) [HY081],3.9 ± 2,0.9 ± 0.1,> 20,1.21 ± 0.16,–,fold induction at 40 µM (CHOP mRNA [1]; Mus musculus): 1.78
CCN(CC)CCOc1ccc(C(C)(C)C)cc1C1(c2cc(C(C)(C)C)ccc2O)C(=O)Nc2ccccc21 (stereo not shown) [HY096],0.6 ± 0.1,1.5 ± 0.6,0.8 ± 0.4,–,–,"fold induction at 20 µM (CHOP mRNA [1]; Mus musculus): 12.4; maximal fold induction at 20 µM [2, 4]: 16.7 ± 3.24"
CC(C)(C)c1ccc(O)c(C2(c3cc(C(C)(C)C)ccc3OCCN3CCOCC3)C(=O)N(CCN3CCOCC3)c3ccccc32)c1 (stereo not shown) [HY305],3.6 ± 0.7,2,5,3.61 ± 0.47,31.9 ± 9.27,fold induction at 40 µM (CHOP mRNA [1]; Mus musculus): 10
COCCOc1ccc(C(C)(C)C)cc1C1(c2cc(C(C)(C)C)ccc2OCCOC)C(=O)Nc2ccccc21 [HY181],3.9 ± 2,0.9 ± 0.1,> 20,–,1.58 ± 0.07,fold induction at 80 µM (CHOP mRNA [1]; Mus musculus): 1.1
CC(C)(C)c1ccc(O)c(C2(c3cc(C(C)(C)C)ccc3O)C(=O)N(CCN3CCOCC3)c3ccccc32)c1 [HY304],2.2 ± 0.2,1.6 ± 0.2,17.5 ± 1.3,4.31 ± 0.1,–,fold induction at 40 µM (CHOP mRNA [1]; Mus musculus): 9.1
COc1ccc(C(C)C)cc1C1(c2cc(C(C)C)ccc2OC)C(=O)Nc2ccccc21 [HY061],3,2.8 ± 0.2,11 ± 0.4,–,2.9 ± 1.21,fold induction at 40 µM (CHOP mRNA [1]; Mus musculus): 4.23; fold induction at 80 µM (CHOP mRNA [1]; Mus musculus): 12.3
CC(C)(C)c1ccc(O)c(C2(c3cc(C(C)(C)C)ccc3OCCBr)C(=O)N(CCBr)c3ccccc32)c1 (stereo not shown) [HY183],2.9 ± 1.2,1.1 ± 0.3,> 20,–,1.9 ± 0.03,fold induction at 80 µM (CHOP mRNA [1]; Mus musculus): 1.83
"O=C1Nc2ccccc2C1(c1cc(C2CCCC2)ccc1O)c1cc(C2CCCC2)ccc1O [HY051, 3,3-Bis(5-Cyclopentyl-2-Hydroxyphenyl)Indolin-2-One]",5.3 ± 2.4,3.1 ± 0.2,> 20,–,–,"fold induction at 20 µM (CHOP mRNA [1]; Mus musculus): 13.8; maximal fold induction at 20 µM [2, 4]: 5.48 ± 0.3"
CN(C)CCN1C(=O)C(c2cc(C(C)(C)C)ccc2CCCN2CCCC2)(c2cc(C(C)(C)C)ccc2OCCN2CCCC2)c2ccccc21 (stereo not shown) [HY198],–,–,–,–,–,IC50 (CRL-2351): 0.2 ± 0.05 µM; CHOP PCR (μM) KLN (CHOP mRNA [1]): 3.76 at; IC50 (CRL-2813): 0.8 ± 0.1 µM; IC50 (KLN): 0.3 ± 0.1 µM; ATF-4 Xmax ([2]; 2.5 uM): 11.82 ± 0.11/2.5 uM
CN1CCN(CCOc2ccc(C(C)(C)C)cc2C2(c3cc(C(C)(C)C)ccc3OCCN3CCN(C)CC3)C(=O)N(CCN3CCNCC3)c3ccccc32)CC1 [HY313],0.6 ± 0.1,> 20,9.3 ± 3.2,–,–,"fold induction at 10 µM (CHOP mRNA [1]; Mus musculus, at 10 (uM)): 6.73"
CC(C)(C)c1ccc(OCCN2CCCC2)c(C2(c3cc(C(C)(C)C)ccc3OCCN3CCCC3)C(=O)Nc3ccccc32)c1 [HY191],0.65 ± 0.1,0.8 ± 0.1,3.5 ± 1.2,–,–,"fold induction at 5 µM (CHOP mRNA [1]; Mus musculus, at 5 uM): 8.5; maximal fold induction at 5 µM ([2]; Mus musculus, cell prints 5 (uM), read-out: ATF-4 Xmax): 13.9 ± 0.97"
"O=C1Nc2ccccc2C1(c1cc(Cl)ccc1O)c1cc(Cl)ccc1O [HY033, 3,3-Bis(5-Chloro-2-Hydroxyphenyl)Indolin-2-One]",6.8 ± 0.8,4.2 ± 0.2,15.2 ± 1.6,6.14 ± 0.63,–,"CHOP PCR (μM) 2351 (CHOP mRNA [3]; CRL-2351, 20 uM): 7.8/20 uM; CHOP PCR (μM) 2351 (CHOP mRNA [3]; CRL-2351, 40 uM): 18.5/40 uM"
CC(C)(C)c1ccc(OCCN2CCNCC2)c(C2(c3cc(C(C)(C)C)ccc3OCCN3CCNCC3)C(=O)Nc3ccccc32)c1 [HY401],0.8 ± 0.1,1.5 ± 0.9,10.6 ± 0.9,11.4 ± 0.65,–,–
CC(C)(C)c1ccc(O)c(C2(c3ccccc3)C(=O)Nc3ccc(OC(F)(F)F)cc32)c1 (stereo not shown) [Sd224],2.5 ± 0.9,1,8,2.56 ± 0.3,–,–
CCOC(=O)COc1ccccc1C1(c2cc(C(C)(C)C)ccc2OCC(=O)OCC)C(=O)Nc2ccccc21 (stereo not shown) [HY067],–,–,–,–,–,IC50 (CRL-2351): 2.1 ± 1.1 µM; IC50 (CRL-2813): 0.24 µM; IC50 (KLN): 19.8 ± 1.3 µM; ATF-4 Xmax ([2]; 80 uM): 1.19 ± 0.19/80 uM
O=C1Nc2c(ccc(F)c2F)C1(c1ccc(O)cc1)c1ccc(O)cc1 [SD132],> 20,3.74 ± 0.28,> 20,–,8.8 ± 1.97,–
CN(C)CCOc1ccc(C(C)(C)C)cc1C1(c2cc(C(C)(C)C)ccc2OCCN(C)C)C(=O)Nc2ccccc21 [HY177],11.5 ± 1.5,12.5 ± 1,> 20,1.34 ± 0.38,–,–
"CC(C)Oc1ccc(O)c(C2(c3cc(OC(C)C)ccc3O)C(=O)Nc3ccccc32)c1 [HY037, 3,3-Bis(2-Hydroxy-5-Isopropoxyphenyl)Indolin-2-One]",3.6 ± 0.6,5.6 ± 0.8,> 20,–,2.79 ± 0.9,–
